As usually defined, the melting point is the temperature, or range, at which the solid turns liquid.

Structures are written as SMILES.

For `CCOc1cc(C(C#N)N2C(=O)c3cccc([N+](=O)[O-])c3C2=O)ccc1OC` (configuration not stated), the melting point lay within 155 to 157 °C. With `Cn1c(C(=O)O)c(Oc2ccccc2N)c2ccccc21`, the melting point lay in the range of 193 to 194 °C. In the case of `OC/C(=C/c1ccccc1)c1cccs1` it was 64 to 65 °C. In the case of `COC(=O)c1ccc(N2C(=O)CCC2(CO)CCO)c([N+](=O)[O-])c1` (configuration not stated) it was 151 to 153 °C; in that of `O=S(=O)(Nc1ccc(Cl)cc1C(=NOCc1ccc(Cl)c(Cl)c1)c1ccccc1)C(F)(F)F`, 87 to 88 °C.

`O=C1Nc2cc(NC(=O)c3cccn(-c4ccccc4)c3=O)ccc2/C1=C/c1ccc[nH]1` showed a melting point of more than 300 °C.

For the compound `CCc1cc(-c2ccc(-c3cc(CCC(=O)NCc4cccnc4)[nH]n3)cc2)ccc1O`, the melting point was 210 to 214 °C. Turning to `CCCCC1(N2CCCC2)CC=C(c2[nH]c3ccccc3c2CCc2ccncc2)CC1` (configuration not stated), the melting point lay within 187 to 195 °C. With `Cc1cc(Cl)ccc1Cn1nc(OC(C)C)cc1CCCOc1ncccc1CC(=O)O`, the melting point was in the range of 97 to 98 °C. Compound `C#CCNC1CCc2ccccc21` (configuration not stated) returned a melting point of 39 to 41 °C. In the case of `CC(C)(C)OC(=O)NC1CCCCCC=CC2CC2(C(=O)NS(=O)(=O)C2CC2)NC(=O)C2CC(OC(=O)c3ccc4c(c3)OCCO4)CN2C1=O` (configuration not stated) it was 199 to 201 °C; in that of `NC(=O)CNC(=O)c1cccc(-c2cc(F)cc3cc(Cc4cccc(C(F)(F)F)c4)sc23)c1`, 71 to 73 °C. With `O=P(Cc1ccc2ccccc2c1-c1c(CP(=O)(c2cccc(F)c2)c2cccc(F)c2)ccc2ccccc12)(c1cccc(F)c1)c1cccc(F)c1`, the melting point lay in the range of 280 to 284 °C. With `CN(C)C(=O)C(O)C1c2ccccc2CCc2ccccc21` (configuration not stated) the figure was 210 to 214 °C; with `COC1=CCC2=C(CCC3C2CCC2(C)C(=O)CCC32)C1` (configuration not stated), 106 to 110 °C. The compound `C=CCNCc1c(CO)nc2n1-c1ccc(Cl)cc1C(c1ccccc1F)=NC2` came in with a melting point of 140 °C. With `CC(C)(C)c1cc(-c2nnc(C(N)=O)s2)cc(C(C)(C)C)c1O` the figure was 200 to 201 °C; with `Cc1ccc(S(=O)(=O)N2CCC[C@H]2CN2CCN(C)CC2)cc1`, 96.5 to 97.7 °C. In turn, `C#CCOc1ccc2c(c1)c(-c1ccc(C(C)C)cc1)nc(=O)n2Cc1cccc(N2CCCC2=O)c1` displayed a melting point of 68 to 69 °C. In the case of `CCc1cn(C2CC(OC)C(CO)O2)c(=O)[nH]c1=O` (configuration not stated) it was 118 to 127 °C.

`O=C(Cc1ccccc1I)Nc1ccccc1I`: the melting point fell in the range of 160 to 163 °C. In turn, `CC(C)C(C)(C)[Si](C)(C)OC1CCC2(C)C(=CC=C3C4CCC(=O)C4(C)CCC32)C1` (configuration not stated) registered a melting point of 119 to 125 °C. For the compound `O=C(CCl)N(c1ccccc1)c1cccc(Cl)c1`, the melting point fell in the range of 94 to 96.5 °C.

`O=C1CC(c2ccc(OCc3ccccc3)cc2)CN1O` (configuration not stated) returned a melting point of 150 to 155 °C. With `Cn1cc(-c2cccc(Br)c2)c(=O)c(-c2ccc(Cl)c(Cl)c2)c1` the figure was 152 to 154 °C; with `CN(C)C(=O)c1ccc([N+](=O)[O-])cc1S(=O)(=O)NC(C)(C)C`, 138 to 141 °C. With `O=[N+]([O-])C(=Cc1ccco1)C1=NCCN1CC1CCOC1` (configuration not stated) the figure was 115 to 117 °C. For `Nc1ccc(CS(=O)(=O)NCCc2ccccc2)cc1`, the melting point was 123 to 125 °C. With `CC(C)n1nc(-c2c(-c3ccccc3)nc(N)nc2N(C)Cc2ccccc2)ccc1=O` the figure was 167 to 168 °C; with `Nc1cccc(NCCCN2CCOCC2)c1`, 61 to 65 °C; with `CCOC(=O)C=Cc1cccc([N+](=O)[O-])c1C`, 53 to 55 °C.

`c1ccc(CN2CCN(c3nc4nccc(-c5cccnc5)n4n3)CC2)cc1` displayed a melting point of 149 to 150 °C. With `CNCc1nc(-c2cc(C(C)(C)C)c(O)c(C(C)(C)C)c2)cs1` the figure was 136 °C.

`Cc1ccc2ccc(N3C(=O)c4ccccc4C3OC(=O)N3CCN(C)CC3)nc2n1` (configuration not stated) came in with a melting point of 190 °C. With `Cc1cc(C(=O)N2Cc3ccc(C(=O)O)n3Cc3ccccc32)ccc1-c1ccccc1C(F)(F)F` the figure was 127 to 130 °C; with `CCNC(=O)CC1CN=C(c2cc3cc(Oc4ccc(S(C)(=O)=O)nc4)cc(CC)c3[nH]2)S1` (configuration not stated), 227 to 229 °C. With `Cc1cc(-c2cc(C(F)(F)F)nc(-c3cccc(-c4cccc(S(N)(=O)=O)c4)c3)n2)ccc1C(F)(F)F`, the melting point was 205 °C. In the case of `CCOC(=O)NC1Cc2ccccc2C1` it was 68 to 68.5 °C; in that of `CCOC(=O)NN(C)C(=S)Nc1ccc(Cl)cc1F`, 151 °C; in that of `CN1CCCCC1=NC(=O)Nc1ccc(C(F)(F)F)cc1`, 154 to 155 °C. The compound `COC(=O)CCC#Cc1cc(Cl)ccc1[N+](=O)[O-]` registered a melting point of 75 to 78 °C. Turning to `CN(C)CCCN1C(=O)c2cscc2N(C)c2ccccc21`, the melting point lay within 52 to 56 °C.

With `CC(=O)Nc1ccc(/C=C/C(=O)NCC(=O)Nc2ccc(Cl)c(COc3cccc4ccc(C)nc34)c2Cl)cn1`, the melting point was in the range of 272 to 282 °C. In the case of `CCN1C[C@H](CN2CCN(C(c3ccccc3)c3ccccc3)CC2)C[C@@H]2c3cccc4[nH]cc(c34)C[C@H]21` it was 203 to 205 °C; in that of `Cc1cc(C#N)cc(C(=O)Nc2ccn(C)n2)n1`, 201 °C; in that of `CNc1nn(-c2ccc(C)c3c2OC(C)(C)C3)c(=O)o1`, 183 to 184 °C. `CCOC(=O)c1cn(-c2cccc(OC3CCCC3)c2)cn1` showed a melting point of 66 to 67 °C. With `CC(C)CC=Cc1c(C(C)C)nc(C(C)C)c(CO)c1-c1ccc(F)cc1` the figure was 48 to 50 °C; with `O=C1CCC2=C(CCCC2)N1`, 143 to 144 °C. Take `COc1ccc(-c2nn(Cc3ccncc3)c(=O)cc2-c2ccc(Cl)cc2)cc1`: the melting point was 142 to 143 °C. `CN(SN1CCOCC1)C(=O)Oc1cccc2c1OC(C)(C)C2` gave a melting point of 75 to 78 °C. In the case of `O=C1N(Cc2ccc(Cl)cc2)c2ccc(Br)cc2C1(O)c1ccc2c(c1)OCO2` (configuration not stated) it was 179 to 180 °C; in that of `CC(C)(c1cc(F)cc([N+](=O)[O-])c1O)c1cc(F)cc([N+](=O)[O-])c1O`, 138 °C. Compound `CCOC(=O)C1N=CSC12CCN(Cc1ccccc1)CC2` (configuration not stated) displayed a melting point of 67 to 68 °C. With `CC1=CC(OC(=O)c2ccccc2)C(O)C(C)(C)CC1=O` (configuration not stated) the figure was 91 to 92 °C; with `O=C(Nc1ccc(Cl)cc1)NC1N=C(c2ccccc2)c2ccccc2N(CC(=O)N2CCCC2)C1=O` (configuration not stated), 264 to 266 °C; with `CCOCc1cc2c(s1)CCCc1cc(=O)n(-c3ccc(C)cc3)nc1-2`, 92 to 93 °C. With `Cc1ccc(CC2(O)CCN(CC(=O)Nc3ccc(O[Si](C)(C)C(C)(C)C)cc3)CC2)cc1` the figure was 136 to 138 °C; with `O=c1[nH]c2c([nH]c1=O)C(N1CCOCC1)c1ccccc1-2` (configuration not stated), 265 to 267 °C; with `CCOC(=O)c1ccc(-c2nnc(-c3ccccc3[N+](=O)[O-])o2)cc1`, 127 to 128 °C. With `CNCC(O)c1cc(C)oc1C` (configuration not stated) the figure was 76 to 77 °C; with `COc1cc(OC)c([N+](=O)[O-])cc1[N+](=O)[O-]`, 153 to 155 °C. For the compound `COc1cc(C(C)O)ccc1OCCCC1CNCCC1C(c1ccc(F)cc1)c1ccc(F)cc1` (configuration not stated), the melting point lay within 132 to 135 °C. With `COC(=O)c1cc(-c2ccc(C)cc2)c(O)c(C(C)(C)C)c1` the figure was 105 °C; with `COc1ccc(C(C)N(O)C(N)=O)cc1` (configuration not stated), 132 to 134 °C. With `CC(C)N1CC2CC(C1)CN(C(C)(O)c1ccc(F)cc1)C2` (configuration not stated) the figure was 53 to 54 °C; with `CCN(CC)C(=O)CCc1c[nH]c2ccc(Br)cc12`, 128 °C. In the case of `CC(=O)Nc1nc(CCc2ccc(NC3=NCCS3)cc2)cs1` it was 218 to 220 °C; in that of `CC(C)n1cc(-c2nc(C(N)=O)c(N)nc2-c2ccccc2OC(F)(F)F)ccc1=O`, 206 °C. The compound `CNC(=O)c1cc(-c2cccc3nc(Nc4cc(OC)c(OC)c(OC)c4)oc23)cs1` returned a melting point of 260 to 262 °C. In the case of `CN(C)CC(c1ccc(OCc2ccccc2)cc1)C1(O)CCCCC1` (configuration not stated) it was 140 to 142 °C; in that of `COC(=O)C1CCC(C(=O)Nc2sc3c(c2C(=O)NCc2ccc4c(c2)OCO4)CCCC3)CC1` (configuration not stated), 173 °C; in that of `N#Cc1cnc2cnc(F)cc2c1Cl`, 150 to 155 °C.

`COc1ccc2ccc3nc(C(N)=O)cn3c2c1` showed a melting point of 273 to 276 °C.

In the case of `O=C(Nc1ccc(CCN2C(=O)C3CCCC3=Nc3ccccc32)cc1)OCc1ccccc1` (configuration not stated), the melting point is 103 to 105 °C.

For `O=c1oc2ccccc2c(=O)n1CCCCCCCCCO`, the melting point was in the range of 125 to 128 °C. With `CCCCc1cc(=O)c2ccccc2n1Cc1ccc(-c2ccccc2C(=O)O)cc1` the figure was more than 260 °C; with `CN1C(=O)[C@H](NC(=O)C=Cc2ccc(Cl)cc2)N=C(c2ccccc2)c2ccccc21`, 203 to 205 °C. In the case of `CN(C)CCC1CCCCN1CC(=O)N1c2ccccc2NC(=O)c2ccccc21` (configuration not stated) it was 155 to 157 °C.

The compound `CC(C#N)(NC(=O)c1c(Cl)cccc1Cl)c1ncc(C(F)(F)F)cc1Cl` (configuration not stated) showed a melting point of 166 to 167 °C. In the case of `CCOc1ccc2c(c1)C(O)Cc1c(Cl)cccc1S2` (configuration not stated), the melting point is 88 to 90 °C.

With `CC(N=[N+]=[N-])C(=O)c1nc(C(C)(C)C)c(O)c(C(C)(C)C)n1` (configuration not stated), the melting point is 91 to 92 °C.

Turning to `CCN1CCC(c2cccc(C(F)(F)F)c2)(C(C)(C)O)CC1`, the melting point amounted to 110 °C. In turn, `CCC1=NC=C(c2ccc3c(c2)NC(=O)CO3)C(c2ccccc2)S1` (configuration not stated) registered a melting point of 130 to 134 °C. In the case of `O=C(O)C(CSc1ccccc1)CS(=O)(=O)c1ccc(-c2ccc(Cl)cc2)cc1` (configuration not stated) it was 158 to 162 °C. With `NC(=O)NC[C@@H]1CCCc2cc(Sc3cccc(F)c3)cc(F)c21` the figure was 131 to 132 °C; with `CC(C)n1nc(-c2cnc(N)nc2-c2ccc(Cl)c(Cl)c2)ccc1=O`, 176 °C.
